≈ marks a conversion by molar mass, not a printed value.
Key:
[1] = system: patients with mild to moderate hypertension; assay: Population PK/PD analysis (Emax model) of nebivolol plasma concentration versus mean sitting DBP; format: in vivo, human
Method: The study involved first determining the relationship between nebivolol plasma concentration and the therapeutic diastolic blood pressure (DBP)-reducing effect by nebivolol when administered alone. A population PK/PD analysis was performed to assess the relationship between nebivolol plasma concentration and its therapeutic DBP-reducing effect. The analysis utilized PK/PD data that was collected from patients with mild to moderate hypertension following a Phase 3, double-blind, placebo-controlled, multicenter study. During the study, patients were randomized to 7 parallel treatment arms wherein the patient received either a placebo or any of 6 different doses of nebivolol (between 1.25 and 40 mg). The patients were also stratified across all treatment arms by covariates of race (African American vs non-African American), age (<65 vs≧65 years), gender, diabetes status (history of diabetes mellitus vs no history of diabetes mellitus), and by metabolism of nebivolol (PM vs EM of CYP 2D6). Blood pressure data was collected from each patient initially and at days 28 and 84 of treatment. The study results were refined and updated using nonlinear mixed-effects modeling (NONMEM) software, version VII, with first-order conditional estimation/interaction method. […] Moreover, the EC50 (half maximal effective concentration) was determined.

[2] = Crossover trial of nebivolol exposure, alone versus in free combination with valsartan, once daily for 7 days; format: in vivo, human
Method: […], 3-way crossover trial was performed in healthy subjects to assess the pharmacokinetic (pK) and pharmacodynamic (pD) impact of administered valsartan on nebivolol.
28 subjects aged 19-45 were randomized to the following once-daily treatments for 7 days under fasted conditions: (A) nebivolol alone (20 mg tablet) and (B) concomitant nebivolol 20 mg+valsartan 320 mg in free combination. Blood samples were collected from each subject for pK analysis at the following time points: 0 hour (predose) on Days 1, 14, and 27 and at 0 hour (predose) and 1, 2, 4, 6, 10, 16, 24, 36, and 48 hours postdose on Days 7, 20, and 33.
The bioanalytical procedure used to measure plasma concentrations of nebivolol was a LC/MS/MS (liquid chromatography/tandem mass spectrometry) method.
Among the pK parameters measured were AUC0-τ,ss (area under the plasma concentration versus time curve from time 0 to the dosing interval, τ, at steady state); Cdmax,ss (maximum plasma drug concentration at steady state); Tmax,ss (time of maximum plasma drug concentration following drug administration at steady state); Cmin,ss minimum plasma drug concentration at steady state); Cav,ss (average plasma drug concentration at steady state); and CL/F (apparent total clearance from plasma after oral administration). These pK parameters were derived from plasma concentrations using noncompartmental analysis with the software program SAS (version 9.1.3). In addition, the 2-sided 90% confidence interval (CI) for the ratio of geometric means of Cmax and AUC0-τ,ss between nebivolol coadministered with valsartan and nebivolol alone were constructed.

[3] = coadministered with valsartan versus nebivolol alone

OC(CNCC(O)C1CCc2cc(F)ccc2O1)C1CCc2cc(F)ccc2O1 (centres unmarked) [nebivolol]
EC50 ([1]; Homo sapiens, Emax model, mean sitting DBP, Phase 3 data, nebivolol 1.25-40 mg, read-out: EC50 estimate of d,l-nebivolol concentrations (DBP PK/PD model)): 0.0179 ng/mL (≈ 0.0441 nM)
Emax in DBP reduction ([1]; after correction for the placebo effect): approximately 5 mm Hg
decrease in mean nebivolol AUC0-τ [2, 3]: 15-20%
decrease in mean nebivolol Cmax [2, 3]: 40-50%
AUC ([2]; human, plasma, oral, 20 mg nebivolol once daily for 7 days, alone or with 320 mg valsartan, healthy subjects, fasted, steady state, read-out: nebivolol AUC0-τ, Arithmetic Mean): 41.5 ng·h/mL
Cmax ([2]; human, plasma, oral, 20 mg nebivolol once daily for 7 days, alone or with 320 mg valsartan, healthy subjects, fasted, steady state, read-out: nebivolol Cmax, Arithmetic Mean): 8.02 ng/mL
Cmax and CSS,max reduction ([2]; in the presence of valsartan): approximately 50%
mean reduction in nebivolol Cavg and CSS,avg ([2]; in the presence of valsartan): ~20%

From patent US20140057954A1, “CHEMICAL COMPOSITION” (FOREST LABORATORIES HOLDINGS LTD., priority 2012, published 2014)
